The nature of the experiment: Additional study on 24 people with excess weight, formulations given orally, two sachets/day for one month, weight loss. It counts as in vivo, human. The following applies: oral route. The procedure:
An additional study was carried out on 24 people with excess weight, to whom the formulations of the following table were administered by the oral route, in an amount of two sachets/day for one month, without changing their dietary habits.

The record followed here is patent publication US20100041679A1, “ORAL DIETING COMPOSITION COMPRISING CONJUGATED LINOLEIC ACID AND CAFFEINE” (Institut Phytoceutic, priority 2004, published 2010).

Conjugated linoleic acid: the “weight loss observed, significance in words” value is on record as “not significant”. Further, the “Weight loss observed (as % by weight)” value (dietary habits unchanged) is listed as −1.8 (N.S.) % by weight.
